Test results as given in patent US5597798A, “Taxol and epidermal growth factor used to enhance treatment of ovarian cancer” (The Regents of the University of California, priority 1994, dated 1997).
Where two headings read alike, the source gives them in different places.

How the values were obtained:
[1] = tested on: 2008 human ovarian carcinoma cells; test: Colony forming assay, effect of EGF on sensitivity to cytotoxic agents; assay type: cell-based
[2] = tested on: A549 non-small cell lung cancer cells; test: Colony forming assay, effect of EGF on cisplatin sensitivity; assay type: cell-based, human
Text: (§1) The following cell lines were used in these studies: 2008 human ovarian carcinoma (Disaia, et al., Am. J. Obstet. Gynecol. 114:978 (1972)), COLO 316 human ovarian carcinoma (Woods et al., Cancer Res. 39:4449 (1979)), a DDP resistant variant 2008/C13*, derived from the parent 2008 cell line (Andrews, et al., Cancer Res. 45:6250 (1985)), A549 non-small cell lung cancer (Lieber et al., Int. J. Cancer 17:62 (1976)), NCI-H520 squamous cell lung cancer (Brower et al., Cancer Res. 46: 798 (1986)), NCI-H596 adenosquamous lung cancer (Banks-Schlegel et al., Cancer Res. 45: 1187 (1985)), UMC 31 small cell lung cancer cells (Graziano et al., Genes, Chromosomes and Cancer 3: 283 (1991)), GLC4 small cell lung cancer cells (Zijlstra et al., Cancer Res. 47: 1780 (1987)), UMCC10b head and neck cancer cells (Krause et al., Arch. Otolayngol. 107: 703 (1981)), 5637 bladder cancer cells (Fogh et al., J. Natl. Cancer Inst. 58: 209 (1977)), MIA PaCa-2 pancreatic cancer cells (Yunis et al., Int. J. Cancer 19:128 (1977)), Du 145 prostate cancer (Mickey Cancer Res. 37: 4049 (1977)) , COLO 205 colon cancer (Semple et al., Cancer Res. 38:1345 (1978)), KB-3-1 cervix cancer (Akiyama et al., Somat. Cell Mol. Genet. 11: 117 (1985)) , MCF-7 breast cancer (Soule et al., J. Natl. Cancer Inst. 51:1409 (1973)), A431 epidermoid carcinoma of the skin (Giard et al., J. Natl. Cancer Inst. 51: 1417 (1973)) and T-289 melanoma cells (Taetle et al., Cancer (Philadelphia) 60: 1836 (1987)). The human cell line 2008 was established from a patient with a serous cystadenocarcinoma of the ovary. The 8-fold DDP resistant cell line 2008/C13* was generated by 13 monthly selections with […], followed by chronic exposure to stepwise increasing concentrations of DDP, from 0.25 to 5 uM. A resistant subline, designated 2008/C13*5, was obtained by monthly selections with 1 μM DDP. The cells were grown on tissue culture dishes in a humidified incubator at 37° C. and 5% CO2 atmosphere. Cells were grown in either of the following types of media: RPMI 1640, RPMI 1640 plus HITES buffer, DMEM low glucose, or DMEM high glucose supplemented with 5% to 10% heat inactivated fetal calf serum and 2 mM glutamine.
(§2) Colony forming assays were used to assess the effect of each drug on the sensitivity of various tumor cell lines to cytotoxic agents (Andrews, et al., Chem.-Biol. Interact 65:51-58 (1988)). For assays performed on plastic tissue culture dishes, five ml of suspended cells were plated on 60-mm polystyrene tissue culture dishes (Corning Glass Works, Corning, N.Y.). Cells were allowed to attach overnight, then 10 μl of stock drug solution was added to triplicate plates at each drug concentration. Control plates received diluent alone. After 1 h, the drug-containing medium was aspirated and replaced with drug free medium. Plates were incubated in humidified 5% CO2 air, and after 14 days plates were fixed with methanol and stained with Giemsa. Colonies of over 60 cells were counted macroscopically.
(§3) The drug containing media was removed and cells were resuspended in 5 ml of complete medium containing 0.36% low melting-temperature agarose at 37° C. The cell suspension was mixed well and then aliquotted at 1 ml per dish in triplicate onto prepared 35 mm dishes containing a basement layer of solidified 1% agarose. The cell-containing layer was allowed to solidify at 4° C. for 10 minutes, and the dishes were incubated at 37° C. in humidified 5% CO2. Colonies greater than 125 um were counted after 5 days.
(§4) ^a Dose response curves were determined by colony forming assay. Cell

[3] = tested on: COLO 205 colon cancer cells; test: as above; assay type: cell-based, human
Text: as §1, §2, §3, §4

[4] = tested on: Du 145 prostate cancer cells; test: as above; assay type: cell-based, human
Text: as §1, §2, §3, §4

[5] = tested on: GLC 4 small cell lung cancer cells; test: as above; assay type: cell-based, human
Text: as §1, §2, §3, §4

[6] = tested on: KB-3-1 cervix cancer cells; test: as above; assay type: cell-based, human
Text: as §1, §2, §3, §4

[7] = tested on: MCF-7 breast cancer cells; test: as above; assay type: cell-based, human
Text: as §1, §2, §3, §4

[8] = tested on: MIA PaCa-2 pancreatic cancer cells; test: as above; assay type: cell-based, human
Text: as §1, §2, §3, §4

[9] = tested on: T-289 malignant melanoma cells; test: as above; assay type: cell-based, human
Text: as §1, §2, §3, §4

[10] = tested on: UMC 31 small cell lung cancer cells; test: as above; assay type: cell-based, human
Text: as §1, §2, §3, §4

[11] = tested on: UMSCC 10b head and neck cancer cells; test: as above; assay type: cell-based, human
Text: as §1, §2, §3, §4

[12] = tested on: 2008 cells; test: Colony forming (colonogenic) assay, effect of TPA, phorbol and staurosporine on DDP sensitivity
[13] = ratio of IC50 in control and EGF-treated cells
[14] = read-out: IC50 in absence of EGF, cisplatin 1 h, no EGF
[15] = read-out: IC50 in presence of EGF, 10 nM EGF and cisplatin concurrently for 1 h

Q: N.N.[Cl][Pt][Cl] [cisplatin] was tested. Which “effect of EGF on sensitivity of 2008 cells to the agent (in words)” value ([1]; EGF and the cytotoxic agent concurrently for 1 h) did it give?
A: Its value is “significant increase in sensitivity”.

Q: And the Dose modifying factor ([1]; Table 3, ratio of IC50 in control and EGF-treated cells)?
A: Its Dose modifying factor is 2.7.

Q: What about the IC50 ([1]; read-out: IC50 in absence of EGF, Table 3, cisplatin 1 h, no EGF) of the same molecule?
A: Its IC50 is 2.45 µM.

Q: And the IC50 ([1]; read-out: IC50 in absence of EGF, cytotoxic agent for 1 h, no EGF)?
A: The IC50 was 2.8 µM.

Q: What about the IC50 ([1]; read-out: IC50 in presence of EGF, EGF and the cytotoxic agent concurrently for 1 h) of the same molecule?
A: Its IC50 is 0.9 µM.

Q: What about the IC50 ([1]; read-out: IC50 in presence of EGF, Table 3, 10 nM EGF and cisplatin concurrently for 1 h) of the same molecule?
A: The IC50 was 0.91 µM.

Q: And the Dose modifying factor [2, 13]?
A: Its Dose modifying factor is 2.0.

Q: And the IC50 ([2]; read-out: IC50 in absence and presence of EGF (single figure printed), 10 nM EGF and cisplatin concurrently for 1 h)?
A: The IC50 was 14.5 µM.

Q: And the Dose modifying factor [3, 13]?
A: Its Dose modifying factor is 1.7.

Q: What about the IC50 [3, 14] of the same molecule?
A: Its IC50 is 27.6 µM.

Q: What about the IC50 [3, 15] of the same molecule?
A: The IC50 was 16.5 µM.

Q: What about the Dose modifying factor [4, 13] of the same molecule?
A: The Dose modifying factor was 1.5.

Q: What about the IC50 [4, 14] of the same molecule?
A: Its IC50 is 8.52 µM.

Q: What about the IC50 [4, 15] of the same molecule?
A: The IC50 was 5.52 µM.

Q: And the Dose modifying factor [5, 13]?
A: Its Dose modifying factor is 0.7.

Q: And the IC50 [5, 14]?
A: The IC50 was 12.2 µM.

Q: And the IC50 [5, 15]?
A: Its IC50 is 18.2 µM.

Q: What about the Dose modifying factor [6, 13] of the same molecule?
A: The Dose modifying factor was 2.0.

Q: What about the IC50 [6, 14] of the same molecule?
A: The IC50 was 9.71 µM.

Q: What about the IC50 [6, 15] of the same molecule?
A: Its IC50 is 4.79 µM.

Q: And the Dose modifying factor [7, 13]?
A: The Dose modifying factor was 1.0.

Q: And the IC50 [7, 14]?
A: Its IC50 is 3.82 µM.

Q: What about the IC50 [7, 15] of the same molecule?
A: Its IC50 is 3.8 µM.

Q: What about the Dose modifying factor [8, 13] of the same molecule?
A: The Dose modifying factor was 1.4.

Q: What about the IC50 [8, 14] of the same molecule?
A: The IC50 was 7.65 µM.

Q: And the IC50 [8, 15]?
A: The IC50 was 5.53 µM.

Q: What about the Dose modifying factor [9, 13] of the same molecule?
A: Its Dose modifying factor is 0.8.

Q: What about the IC50 [9, 14] of the same molecule?
A: The IC50 was 2.02 µM.

Q: And the IC50 [9, 15]?
A: The IC50 was 2.49 µM.

Q: And the Dose modifying factor [10, 13]?
A: The Dose modifying factor was 0.8.

Q: And the IC50 [10, 14]?
A: Its IC50 is 5.4 µM.

Q: What about the IC50 [10, 15] of the same molecule?
A: Its IC50 is 6.86 µM.

Q: And the Dose modifying factor [11, 13]?
A: Its Dose modifying factor is 3.8.

Q: And the IC50 [11, 14]?
A: Its IC50 is 6.76 µM.

Q: What about the IC50 [11, 15] of the same molecule?
A: Its IC50 is 1.76 µM.

Q: What about the colony survival ([12]; 2 μM DDP in the absence of TPA (FIG. 6)) of the same molecule?
A: The colony survival was “approximately 80%”.

Q: What about the “survival, % of control” value ([12]; DDP (2 μM) alone) of the same molecule?
A: Its value is 85±5%.
